ChEMBL document CHEMBL2062520, “Synthesis and in vitro antimalarial activity of a series of bisquinoline and bispyrrolo[1,2a]quinoxaline compounds” (Eur J Med Chem, 2012)
In brackets after ≈: the same amount, converted by molar mass.

How the values were obtained:
CHO = test: Cytotoxicity against CHO cells by MTT assay; assay type: cell-based; conditions: Cricetulus griseus
Plasmodium falciparum [1] = test: Resistant index, ratio of IC50 for chloroquine-resistant Plasmodium falciparum Dd2 to IC50 for chloroquine-sensitive Plasmodium falciparum D10; assay type: functional
Plasmodium falciparum [2] = test: Antimalarial activity against asexual erythrocyte stages of chloroquine-resistant Plasmodium falciparum Dd2; assay type: functional, organism-based
[3] = Aqueous solubility of the compound in phosphate buffer at pH 5.5 after 24 hrs by HPLC analysis; assay type: physicochemical
UACC-62 = test: Cytotoxicity against human UACC62 cells after 48 hrs by sulforhodamine B assay; assay type: functional; conditions: for GI50 / TGI / CC50: Homo sapiens, UACC-62, 48 h; for CC50: read-out: LC50 (the source's name)
MCF7 = test: Cytotoxicity against human MCF7 cells after 48 hrs by sulforhodamine B assay; assay type: functional; conditions: for GI50 / TGI / CC50: Homo sapiens, MCF7, 48 h; for CC50: read-out: LC50 (the source's name)
physchem = conditions: octanol/phosphate buffered saline
Description: Octanol-phosphate buffered saline distribution coefficient, log D of the compound at 2 mg after 48 hrs by HPLC analysis

TK-10 = test: Cytotoxicity against human TK10 cells after 48 hrs by sulforhodamine B assay; assay type: functional; conditions: for GI50 / TGI / CC50: Homo sapiens, TK-10, 48 h; for CC50: read-out: LC50 (the source's name)
Plasmodium falciparum [4] = test: Antimalarial activity against asexual erythrocyte stages of chloroquine-sensitive Plasmodium falciparum D10; assay type: functional, organism-based
[5] = Selectivity index, ratio of IC50 for CHO cells to IC50 for chloroquine-sensitive Plasmodium falciparum D10; assay type: toxicity, cell-based; conditions: hamster, read-out: Ratio IC50

| SMILES | IC50 (CHO) [nM] | Ratio IC50 (Plasmodium falciparum [1]) | IC50 (Plasmodium falciparum [2]) [nM] | solubility at 24 h [3] [mM] | LC100 (UACC-62) [µM] | GI50 (UACC-62) [nM] | TGI (UACC-62) [nM] | CC50 (UACC-62) [nM] | LC100 (MCF7) [µM] | GI50 (MCF7) [nM] | TGI (MCF7) [nM] | CC50 (MCF7) [nM] | logD at 48 h (physchem) | LC100 (TK-10) [µM] | GI50 (TK-10) [nM] | TGI (TK-10) [nM] | CC50 (TK-10) [nM] | IC50 (Plasmodium falciparum [4]) [nM] | selectivity ratio [5] |
| --- | --- | --- | --- | --- | --- | --- | --- | --- | --- | --- | --- | --- | --- | --- | --- | --- | --- | --- | --- |
| CN(CCCNc1ccnc2cc(Cl)ccc12)CCCNc1ccnc2cc(Cl)ccc12 | 7800 | 1.9 | 71.1 | 32.9 (≈ 15.4 mg/mL) | >100 | 360 | 640 | 920 | >100 | 390 | 690 | 1200 | 0.29 | 45.12 | 540 | 1000 | 5610 | 37.4 | 211 |
| c1ccc2c(c1)nc(NCCNCCNc1nc3ccccc3n3cccc13)c1cccn12 |  | 3.4 | 1900 | 27.5 (≈ 12 mg/mL) |  |  |  |  |  |  |  |  | 0.39 |  |  |  |  | 554 |  |
| Clc1ccc2c(NCCNCCNCCNc3ccnc4cc(Cl)ccc34)ccnc2c1 | 8010 | 0.4 | 35.5 | 38.7 (≈ 18.2 mg/mL) | >100 | 2870 | 5300 | 7740 | >100 | 760 | 3530 | 7370 | 0.28 | >100 | 5890 | 5360 | 7710 | 87.7 | 93 |
| Clc1ccc2c(NCCCNCCNCCCNc3ccnc4cc(Cl)ccc34)ccnc2c1 | 13000 | 0.4 | 49.5 | 18.9 (≈ 9.42 mg/mL) | >100 | 1060 | 4090 | 7110 | >100 | 380 | 1650 | 6430 | 0.3 | >100 | 2100 | 4740 | 7380 | 129 | 102 |
| Cc1cccc2nccc(NCCNCCNc3ccnc4cccc(C)c34)c12 |  | 0.7 | 507 | 29.5 (≈ 11.4 mg/mL) |  |  |  |  |  |  |  |  | 0.05 |  |  |  |  | 741 |  |
| Cc1cccc2nccc(NCCCNCCNc3ccnc4cccc(C)c34)c12 |  | 0.5 | 105 | 28.2 (≈ 11.3 mg/mL) |  |  |  |  |  |  |  |  | 0.32 |  |  |  |  | 214 |  |
| Cc1cccc2nccc(NCCCNCCCNc3ccnc4cccc(C)c34)c12 | 132000 | 0.6 | 80.2 | 27.9 (≈ 11.5 mg/mL) |  |  |  |  |  |  |  |  | 0.14 |  |  |  |  | 129 | 1024 |
| Cc1cccc2nccc(NCCCN(C)CCCNc3ccnc4cccc(C)c34)c12 |  | 10.4 | 1910 | 31.2 (≈ 13.3 mg/mL) |  |  |  |  |  |  |  |  | 0.16 |  |  |  |  | 185 |  |
| Cc1cccc2nccc(NCCNCCNCCNc3ccnc4cccc(C)c34)c12 |  | 0.8 | 1100 | 38.9 (≈ 16.7 mg/mL) |  |  |  |  |  |  |  |  | 0.4 |  |  |  |  | 1420 |  |
| Cc1cccc2nccc(NCCCNCCNCCCNc3ccnc4cccc(C)c34)c12 | 174000 | 0.7 | 608 | 36.5 (≈ 16.7 mg/mL) |  |  |  |  |  |  |  |  | 0.34 |  |  |  |  | 922 | 187 |
| c1ccc2c(c1)nc(NCCCNCCNc1nc3ccccc3n3cccc13)c1cccn12 | 2800 | 6.9 | 1380 | 28.6 (≈ 12.8 mg/mL) |  |  |  |  |  |  |  |  | 0.34 |  |  |  |  | 199 | 14 |
| c1ccc2c(c1)nc(NCCCNCCCNc1nc3ccccc3n3cccc13)c1cccn12 | 3800 | 4.7 | 356 | 24.1 (≈ 11.2 mg/mL) |  |  |  |  |  |  |  |  | 0.32 |  |  |  |  | 75.3 | 51 |
| c1ccc2c(c1)nc(NCCNCCNCCNc1nc3ccccc3n3cccc13)c1cccn12 | 8100 | 2.3 | 4170 | 34 (≈ 16.3 mg/mL) |  |  |  |  |  |  |  |  | -0.02 |  |  |  |  | 1800 | 4.5 |
| Clc1ccc2c(NCCCNCCNc3ccnc4cc(Cl)ccc34)ccnc2c1 | 3100 | 0.9 | 56.4 | 23.5 (≈ 10.4 mg/mL) | >100 | 2070 | 4890 | 7720 | >100 | 600 | 2790 | 7210 | 0.3 | >100 | 1230 | 4250 | 7270 | 66.1 | 47 |
| Clc1ccc2c(NCCCNCCCNc3ccnc4cc(Cl)ccc34)ccnc2c1 |  |  |  | 28.9 (≈ 13.1 mg/mL) |  |  |  |  |  |  |  |  | 0.28 |  |  |  |  |  |  |
| Clc1ccc2c(NCCNCCNc3ccnc4cc(Cl)ccc34)ccnc2c1 |  |  |  | 32 (≈ 13.6 mg/mL) |  |  |  |  |  |  |  |  | 0.3 |  |  |  |  |  |  |
| CN(CCCNc1nc2ccccc2n2cccc12)CCCNc1nc2ccccc2n2cccc12 | 4300 | 6.5 | 724 | 30.2 (≈ 14.4 mg/mL) |  |  |  |  |  |  |  |  | 0.36 |  |  |  |  | 112 | 39 |
| CC[C@H]1CN2CCc3cc(OC)c(OC)cc3[C@@H]2C[C@@H]1C[C@H]1NCCc2cc(OC)c(OC)cc21 [EMETINE] | 300 |  |  |  |  |  |  |  |  |  |  |  |  |  |  |  |  |  |  |
